The values that follow come from the Kinase Knowledgebase extract (Sharma et al. 2016).

Chain of MAPK14 (human) (Q16539 whole entry, looked up): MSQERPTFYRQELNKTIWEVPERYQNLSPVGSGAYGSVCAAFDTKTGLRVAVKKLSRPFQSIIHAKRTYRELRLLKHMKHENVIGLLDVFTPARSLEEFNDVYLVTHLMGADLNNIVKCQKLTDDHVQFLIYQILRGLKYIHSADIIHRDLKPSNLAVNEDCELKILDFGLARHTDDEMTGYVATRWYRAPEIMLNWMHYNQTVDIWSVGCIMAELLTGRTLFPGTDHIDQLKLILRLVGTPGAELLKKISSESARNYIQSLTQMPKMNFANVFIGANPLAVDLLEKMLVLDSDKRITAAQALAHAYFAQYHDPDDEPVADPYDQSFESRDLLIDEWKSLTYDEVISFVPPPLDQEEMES

This experiment addresses MAPK14 (human) (UniProt Q16539). The experiment is described as follows: Inhibition of MAPK14 Kinase Activity.
With `O=C1OCC(Cc2ccccc2F)CN1c1c(Cl)cccc1Cl` (stereo unspecified), the IC50 is no more than 10 µM.
With `CC(C)(C)OC(=O)N(CCO)c1cc(Cl)c(N2CC(Cc3ccc(F)cc3F)CCC2=O)c(Cl)c1` (stereo unspecified) the figure was no more than 10 µM.
With `COC(=O)c1ccccc1CC1CCC(=O)N(c2c(C)cccc2C)C1` (stereo unspecified) the figure was no more than 10 µM; with `COc1ccccc1CC1CCC(=O)N(C2C(Cl)CCCC2Cl)C1` (stereo unspecified), no more than 10 µM.
The value for `O=C(O)c1cc(Cl)c(N2CC(Cc3ccc(F)cc3F)CCC2=O)c(Cl)c1` (stereo unspecified) was no more than 10 µM; that for `O=C(Cc1ccccc1)Nc1cc(Cl)c(N2CC(Cc3ccc(F)cc3F)CCC2=O)c(Cl)n1` (stereo unspecified) was no more than 10 µM.
`O=C1CCC(Sc2ccc(F)cc2)CN1c1c(Cl)ccnc1Cl` (stereo unspecified) showed an IC50 of no more than 10 µM.
With `O=C(NCc1ccccc1CC1CCC(=O)N(c2c(Cl)cccc2Cl)C1)Nc1ccccc1` (stereo unspecified) the figure was no more than 10 µM; with `CN(C)NC(=O)CNc1cc(Cl)c(N2CC(Cc3ccc(F)cc3F)CCC2=O)c(Cl)c1` (stereo unspecified), no more than 10 µM.
Consider `O=C1CCC(Cc2ccc(F)cc2F)CN1C1C(Cl)CCC(CO)C1Cl` (stereo unspecified), for which the 50% inhibitory concentration (IC50) is no more than 10 µM.
For the molecule `O=C1CSC(Cc2ccc(F)cc2)CN1c1c(Cl)cccc1Cl` (stereo unspecified), the half-maximal inhibitory concentration (IC50) was no more than 10 µM.
The value for `CN1CC(Cc2ccccc2)CN(c2c(Cl)cccc2Cl)C1=O` (stereo unspecified) was no more than 10 µM; that for `O=C1CCC(Sc2ccccc2)CN1c1c(Cl)cccc1Cl` (stereo unspecified) was no more than 10 µM; that for `O=C1[C@H](O)C[C@@H](Cc2ccc(F)cc2F)CN1c1c(Cl)cccc1Cl` was no more than 10 µM.
The value for `Cc1ccc(CC2CCC(=O)N(c3c(Cl)cncc3Cl)C2)cc1` (stereo unspecified) was no more than 10 µM; that for `Cc1ccc(OC2CCC(=O)N(c3c(Cl)csc3Cl)C2)c(C)c1` (stereo unspecified) was no more than 10 µM; that for `Cc1cccc(C)c1N1CC(Cc2ccc(F)cc2F)CCC1=O` (stereo unspecified) was no more than 10 µM.
As to `O=C1CCC(Sc2ccc3ccccc3c2)CN1c1c(Cl)cncc1Cl` (stereo unspecified), the IC50 was no more than 10 µM.
The value for `COc1ccccc1CC1CN(c2c(Cl)cccc2Cl)C(=O)CO1` (stereo unspecified) was no more than 10 µM; that for `COc1ccccc1CC1CSC(=O)N(c2c(Cl)cccc2Cl)C1` (stereo unspecified) was no more than 10 µM.
With `CC(C)(C)OC(=O)N[C@@H](COCc1ccccc1)C(=O)Nc1cc(Cl)c(N2CC(Cc3ccc(F)cc3F)CCC2=O)c(Cl)c1` (stereo partly specified) the figure was no more than 10 µM; with `CC(=O)Nc1ccc(Cl)c(N2CC(Cc3ccc(F)cc3F)CCC2=O)c1` (stereo unspecified), no more than 10 µM.
With `O=C1CCC(CO)(Cc2ccc(F)cc2F)CN1c1c(Cl)cccc1Cl` (stereo unspecified) the figure was no more than 10 µM.
In turn, `O=C1COC(Cc2ccc(F)cc2F)CN1c1c(Cl)cc(O)cc1Cl` (stereo unspecified) gave a half-inhibitory concentration (IC50) of no more than 10 µM.
With `CC(=O)NCCN(C(=O)OC(C)(C)C)c1cc(Cl)c(N2CC(Cc3ccc(F)cc3F)CCC2=O)c(Cl)c1` (stereo unspecified) the figure was no more than 10 µM; with `Cc1cc(NC(=O)OC(C)(C)C)cc(C)c1N1CC(Cc2ccc(F)cc2F)CNC1=O` (stereo unspecified), no more than 10 µM; with `O=C1NCC(Cc2ccc(F)cc2F)CN1c1c(Cl)cc(Br)cc1Cl` (stereo unspecified), no more than 10 µM.
Consider `Cc1cc(C(=O)NCCN(C)C)cc(C)c1N1CC(Cc2ccc(F)cc2F)CNC1=O` (stereo unspecified), for which the IC50 was no more than 10 µM.
The value for `CC(=O)Nc1ncc(Cl)c(N2CC(Cc3ccc(F)cc3F)CCC2=O)c1Cl` (stereo unspecified) was no more than 10 µM; that for `CC(=O)Nc1cc(Cl)c(N2CC(Oc3ccc(F)cc3F)CCC2=O)c(Cl)c1` (stereo unspecified) was no more than 10 µM.
Regarding `NC(=O)C[C@H](N)C(=O)Nc1cc(Cl)c(N2CC(Cc3ccc(F)cc3F)CCC2=O)c(Cl)c1` (stereo partly specified), the IC50 is no more than 10 µM.
With `Cc1cc(C(=O)NCCN(C)C)cc(C)c1N1CC(Cc2ccc(F)cc2F)CCC1=O` (stereo unspecified), the IC50 is no more than 10 µM.
The value for `Cc1ccccc1CC1CN(c2c(Cl)cccc2Cl)C(=O)CS1` (stereo unspecified) was no more than 10 µM; that for `Nc1sc(Cl)c(N2CC(Cc3ccc(F)cc3F)CCC2=O)c1Cl` (stereo unspecified) was no more than 10 µM; that for `O=C1CCC(Cc2ccc(F)cc2F)CN1C1C(Cl)CCCC1Cl` (stereo unspecified) was no more than 10 µM.
With `NCCCc1cc(Cl)c(N2CC(Cc3ccc(F)cc3F)CCC2=O)c(Cl)c1` (stereo unspecified) the figure was no more than 10 µM; with `CNc1ccc(Cl)c(N2CC(Sc3ccc(F)cc3F)CCC2=O)c1Cl` (stereo unspecified), no more than 10 µM.
The value for `O=C1NCC(Cc2ccc(F)cc2F)CN1c1c(Cl)ccc(O)c1Cl` (stereo unspecified) was no more than 10 µM.
Molecule `O=C(Cc1ccccc1)Nc1cc(Cl)c(N2CC(Cc3ccc(F)cc3F)CNC2=O)c(Cl)c1` (stereo unspecified) returned an IC50 of no more than 10 µM.
With `CC(=O)Nc1ccc(Cl)c(N2CC(Cc3ccc(F)cc3F)CSC2=O)c1Cl` (stereo unspecified), the IC50 is no more than 10 µM.
The value for `Nc1ccc(Cl)c(N2CC(Cc3ccc(F)cc3F)COC2=O)c1Cl` (stereo unspecified) was no more than 10 µM; that for `Cc1nc[nH]c1CNc1cc(Cl)c(N2CC(Cc3ccccc3)CCC2=O)c(Cl)c1` (stereo unspecified) was no more than 10 µM.
The value for `CC(=O)Nc1cc(Cl)c(N2CC(Sc3ccc(F)cc3F)CCC2=O)c(Cl)c1` (stereo unspecified) was no more than 10 µM; that for `O=C1SCC(Cc2ccc3ccccc3c2)CN1c1c(Cl)cccc1Cl` (stereo unspecified) was no more than 10 µM; that for `O=C1CCC(Cc2ccc(Cl)cc2)CN1c1c(Cl)ccnc1Cl` (stereo unspecified) was no more than 10 µM.
The molecule `O=C1CCC(Cc2ccc(F)cc2F)CN1C1C(Cl)CC(CO)CC1Cl` (stereo unspecified) had an IC50 of no more than 10 µM.
The value for `Cc1cc(C)cc(OC2CCC(=O)N(c3c(Cl)cncc3Cl)C2)c1` (stereo unspecified) was no more than 10 µM; that for `Cc1cc(NC(=O)OC(C)(C)C)cc(C)c1N1CC(Cc2ccc(F)cc2F)CCC1=O` (stereo unspecified) was no more than 10 µM.
The value for `O=C1CCC(Sc2ccccc2)CN1c1c(Cl)ccnc1Cl` (stereo unspecified) was no more than 10 µM; that for `O=C1CCC(Cc2cc(F)cc(F)c2)CN1c1c(Cl)cccc1Cl` (stereo unspecified) was no more than 10 µM.
`O=C1CCC(Sc2ccccc2Cl)CN1c1c(Cl)ccnc1Cl` (stereo unspecified) returned an IC50 of no more than 10 µM.
`O=C1CCC(Cc2ccc(F)cc2F)CN1c1c(Cl)cc(CO)nc1Cl` (stereo unspecified) showed a 50% inhibitory concentration (IC50) of no more than 10 µM.
With `O=C1SCC(Cc2ccccc2)CN1c1c(Cl)cccc1Cl` (stereo unspecified) the figure was no more than 10 µM; with `O=C1CCC(Sc2ccc3ccccc3c2)CN1c1c(Cl)cccc1Cl` (stereo unspecified), no more than 10 µM.
The value for `COc1ccc(CC2CSC(=O)N(c3c(Cl)cccc3Cl)C2)cc1` (stereo unspecified) was no more than 10 µM; that for `Cc1ccc(SC2CCC(=O)N(C3C(Cl)CCCC3Cl)C2)cc1` (stereo unspecified) was no more than 10 µM; that for `O=C1CCC(Sc2cc(F)cc(F)c2)CN1C1C(Cl)CCCC1Cl` (stereo unspecified) was no more than 10 µM.
The value for `O=C1CCC(Cc2ccc(F)cc2)CN1c1c(Cl)csc1Cl` (stereo unspecified) was no more than 10 µM; that for `CC(=O)NCc1ccccc1CC1CCC(=O)N(c2c(Cl)cccc2Cl)C1` (stereo unspecified) was no more than 10 µM.
For `O=C1CCC(Sc2ccccc2F)CN1c1c(Cl)csc1Cl` (stereo unspecified), the concentration for half-maximal inhibition (IC50) was no more than 10 µM.
With `Cc1ccccc1CC1CCC(=O)N(c2c(Cl)ccnc2Cl)C1` (stereo unspecified) the figure was no more than 10 µM; with `O=C1CCC(Cc2ccccc2)CN1c1c(Cl)ccnc1Cl` (stereo unspecified), no more than 10 µM; with `O=C1CSC(Cc2ccc(F)cc2F)CN1c1c(Cl)cc(O)cc1Cl` (stereo unspecified), no more than 10 µM.
The value for `COC(=O)c1cc(Cl)c(N2CC(Cc3ccc(F)cc3F)CCC2=O)c(Cl)c1` (stereo unspecified) was no more than 10 µM.
The value for `O=C(Cc1ccccc1)Nc1ccc(Cl)c(N2CC(Sc3ccc(F)cc3F)CCC2=O)c1Cl` (stereo unspecified) was no more than 10 µM.
`O=C1CCC(Sc2ccc(Cl)cc2)CN1c1c(Cl)csc1Cl` (stereo unspecified): the half-inhibitory concentration (IC50) was no more than 10 µM.
The value for `Cc1ccc(OC2CCC(=O)N(C3C(Cl)CCCC3Cl)C2)c(C)c1` (stereo unspecified) was no more than 10 µM; that for `O=C1CCC(C(O)c2ccc(F)cc2F)CN1c1c(Cl)cccc1Cl` (stereo unspecified) was no more than 10 µM; that for `CC(C)(C)OC(=O)Nc1ccc(Cl)c(N2CC(Cc3ccc(F)cc3F)CCC2=O)c1` (stereo unspecified) was no more than 10 µM.
With `O=C(Cc1ccccc1)NC1CC(Cl)C(N2CC(Oc3ccc(F)cc3F)CCC2=O)C(Cl)C1` (stereo unspecified) the figure was no more than 10 µM; with `CC(=O)N1CC(=O)N(c2c(Cl)cccc2Cl)CC1Cc1ccc(F)cc1F` (stereo unspecified), no more than 10 µM; with `CCN(CC)CC(=O)Nc1cc(Cl)c(N2CC(Cc3ccc(F)cc3F)CCC2=O)c(Cl)c1` (stereo unspecified), no more than 10 µM.
With `Cc1cc(C)cc(CC2CCC(=O)N(c3c(Cl)cccc3Cl)C2)c1` (stereo unspecified) the figure was no more than 10 µM.
Consider `COC(c1ccc(F)cc1F)C1CCC(=O)N(c2c(Cl)cccc2Cl)C1` (stereo unspecified), for which the half-maximal inhibitory concentration (IC50) was no more than 10 µM.
The value for `O=C1NCC(Cc2cc(F)cc(F)c2)CN1c1c(Cl)cccc1Cl` (stereo unspecified) was no more than 10 µM; that for `CC(=O)Nc1ccc(Cl)c(N2CC(Cc3ccc(F)cc3F)CCC2=O)c1Cl` (stereo unspecified) was no more than 10 µM; that for `O=C1CCC(Cc2ccc(F)cc2F)CN1c1c(Cl)cnc(CO)c1Cl` (stereo unspecified) was no more than 10 µM.
The value for `O=C1CCC(Cc2ccc(F)cc2F)CN1c1c(Cl)cc(NCCN2CCOCC2)cc1Cl` (stereo unspecified) was no more than 10 µM; that for `CC(C)(C)OC(=O)N(CCNC(N)=O)c1cc(Cl)c(N2CC(Cc3ccc(F)cc3F)CCC2=O)c(Cl)c1` (stereo unspecified) was no more than 10 µM; that for `CN1CCN(CCNc2cc(Cl)c(N3CC(Cc4ccc(F)cc4F)CCC3=O)c(Cl)c2)CC1` (stereo unspecified) was no more than 10 µM.
The value for `Cc1ccc(OC2CCC(=O)N(c3c(Cl)ccnc3Cl)C2)cc1` (stereo unspecified) was no more than 10 µM; that for `Cc1cc(N)cc(C)c1N1CC(Cc2ccc(F)cc2F)CCC1=O` (stereo unspecified) was no more than 10 µM; that for `Cc1cc(C)cc(OC2CCC(=O)N(c3c(Cl)csc3Cl)C2)c1` (stereo unspecified) was no more than 10 µM.
On to `O=C1CCC(Cc2ccc(C(F)(F)F)cc2)CN1c1c(Cl)cccc1Cl` (stereo unspecified), for which the IC50 was no more than 10 µM.
Molecule `Cc1cc(C#CCCN(C)C)cc(C)c1N1CC(Cc2ccc(F)cc2F)CCC1=O` (stereo unspecified) came in with a half-inhibitory concentration (IC50) of no more than 10 µM.
The value for `COC(=O)/C=C/c1ccccc1CC1CCC(=O)N(c2c(C)cccc2C)C1` (stereo unspecified) was no more than 10 µM.
Consider `Cc1cc(C)cc(OC2CCC(=O)N(c3c(Cl)cccc3Cl)C2)c1` (stereo unspecified), for which the concentration for half-maximal inhibition (IC50) was no more than 10 µM.
The value for `O=C(Cc1ccccc1)Nc1cc(Cl)c(N2CC(Sc3ccc(F)cc3F)CCC2=O)c(Cl)c1` (stereo unspecified) was no more than 10 µM.
Molecule `O=C1CCC(Sc2ccc(F)cc2F)CN1C1C(Cl)CC(O)CC1Cl` (stereo unspecified) gave a half-inhibitory concentration (IC50) of no more than 10 µM.
Molecule `O=C1CCC(Sc2ccc(F)cc2F)CN1c1c(Cl)ccnc1Cl` (stereo unspecified) had an IC50 of no more than 10 µM.
The value for `CC(C)(C)OC(=O)Nc1cc(Cl)c(N2CC(C(O)c3ccc(F)cc3F)CCC2=O)c(Cl)c1` (stereo unspecified) was no more than 10 µM; that for `O=C1CCC(CCc2ccccc2)CN1c1c(Cl)cccc1Cl` (stereo unspecified) was no more than 10 µM.
Regarding `O=C1CCC(Cc2ccc([N+](=O)[O-])cc2)CN1c1c(Cl)cccc1Cl` (stereo unspecified), the concentration for half-maximal inhibition (IC50) was no more than 10 µM.
Regarding `O=C(Cc1ccccc1)Nc1cc(Cl)c(N2CC(Cc3ccc(F)cc3F)COC2=O)c(Cl)c1` (stereo unspecified), the IC50 was no more than 10 µM.
The molecule `O=C1CCC(Sc2ccc(F)cc2F)CN1c1c(Cl)ccc(CO)c1Cl` (stereo unspecified) displayed an IC50 of no more than 10 µM.
With `Cc1ccc(CC2CCC(=O)N(c3c(Cl)cccc3Cl)C2)cc1` (stereo unspecified) the figure was no more than 10 µM.
